Experimental data as given in patent US12077503B2, “Substituted cyclic amides and their use as herbicides” (FMC CORPORATION, priority 2015, dated 2024).

Experiments:
Format in all cases: in vivo
corn (Zea mays) [1] = test: Test G Pre-Emergence Protocol; settings: Zea mays, pre-emergence, 312 h, evaluated after 13 days; for plant injury at 15.625 g/ha: 15.625 g ai/ha; for plant injury at 15.625 g/ha / plant injury at 250 g/ha: read-out: Corn damage rating (100=total damage to plant; 0=no damage to plant); for plant injury at 62.5 g/ha: 62.5 g ai/ha, 100=total damage to plant, 0=no damage to plant, read-out: plant damage rating, Corn; for plant injury at 250 g/ha: 250 g ai/ha
Summary of the method: (§1)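 Spraying took place one day after sowing, at 15.625, 62.5 or 250 g/ha, using an acetone/water (50:50) spray solution containing 0.5% Tween 20. Plants were kept under glasshouse conditions (24/16 °C, 14 h light, 65% humidity, watered twice daily), and injury was rated 0–100 at day 13.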

[2] = system: barnyardgrass (Echinochloa crus-galli); test: Test G Pre-Emergence Protocol; settings: Echinochloa crus-galli, pre-emergence, 312 h, evaluated after 13 days; for pest or weed control at 15.625 g/ha: 15.625 g ai/ha, read-out: Barnyard grass damage rating (100=total damage to plant; 0=no damage to plant); for pest or weed control at 62.5 g/ha: 62.5 g ai/ha, 100=total damage to plant, 0=no damage to plant, read-out: plant damage rating, Barnyardgrass; for pest or weed control at 250 g/ha: 250 g ai/ha, read-out: Barnyardgrass damage rating (100=total damage to plant; 0=no damage to plant)
Summary of the method: as §1

[3] = system: velvetleaf (Abutilon theophrasti); test: Test G Pre-Emergence Protocol; settings: Abutilon theophrasti, pre-emergence, 312 h, evaluated after 13 days; for pest or weed control at 15.625 g/ha: 15.625 g ai/ha; for pest or weed control at 15.625 g/ha / pest or weed control at 250 g/ha: read-out: Velvetleaf damage rating (100=total damage to plant; 0=no damage to plant); for pest or weed control at 62.5 g/ha: 62.5 g ai/ha, 100=total damage to plant, 0=no damage to plant, read-out: plant damage rating, Velvetleaf; for pest or weed control at 250 g/ha: 250 g ai/ha
Summary of the method: as §1

[4] = system: giant foxtail (Setaria faberi); test: Test G Pre-Emergence Protocol; settings: Setaria faberi, pre-emergence, 312 h, evaluated after 13 days; for pest or weed control at 15.625 g/ha: 15.625 g ai/ha; for pest or weed control at 15.625 g/ha / pest or weed control at 250 g/ha: read-out: Foxtail, Giant damage rating (100=total damage to plant; 0=no damage to plant); for pest or weed control at 62.5 g/ha: 62.5 g ai/ha, 100=total damage to plant, 0=no damage to plant, read-out: plant damage rating, Foxtail, Giant; for pest or weed control at 250 g/ha: 250 g ai/ha
Summary of the method: as §1

[5] = system: ivy-leaved morning glory (Ipomoea hederacea); test: Test G Pre-Emergence Protocol; settings: Ipomoea, pre-emergence, 312 h, evaluated after 13 days; for pest or weed control at 15.625 g/ha: 15.625 g ai/ha, read-out: Morning-glory, Ivy-leaved damage rating (100=total damage to plant; 0=no damage to plant); for pest or weed control at 62.5 g/ha: 62.5 g ai/ha, 100=total damage to plant, 0=no damage to plant, read-out: plant damage rating, Morningglory, Ivy-leaved; for pest or weed control at 250 g/ha: 250 g ai/ha, read-out: Morningglory, Ivy-leaved damage rating (100=total damage to plant; 0=no damage to plant)
Summary of the method: as §1

[6] = system: redroot pigweed (Amaranthus retroflexus); test: Test G Pre-Emergence Protocol; settings: Amaranthus retroflexus, pre-emergence, 312 h, evaluated after 13 days; for pest or weed control at 15.625 g/ha: 15.625 g ai/ha; for pest or weed control at 15.625 g/ha / pest or weed control at 250 g/ha: read-out: Pigweed, Redroot damage rating (100=total damage to plant; 0=no damage to plant); for pest or weed control at 62.5 g/ha: 62.5 g ai/ha, 100=total damage to plant, 0=no damage to plant, read-out: plant damage rating, Pigweed, Redroot; for pest or weed control at 250 g/ha: 250 g ai/ha
Summary of the method: as §1

corn (Zea mays) [7] = test: Test G Post-Emergence Protocol; settings: Zea mays, post-emergence, 312 h; for plant injury at 15.625 g/ha: 15.625 g ai/ha, evaluated after 13 days (100=total damage to plant; 0=no damage to plant), read-out: Corn damage rating; for plant injury at 62.5 g/ha: 62.5 g ai/ha, read-out: Corn damage rating (100=total damage to plant; 0=no damage to plant); for plant injury at 62.5 g/ha / plant injury at 250 g/ha: evaluated after 13 days; for plant injury at 250 g/ha: 250 g ai/ha, read-out: damage to plant, Corn (100=total damage to plant; 0=no damage to plant)
Summary of the method: (§2)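 Foliar application was made 8 days after sowing, using an aqueous spray of the active in acetone/water (50:50) with 0.5% Tween 20, at doses of 15.625, 62.5 or 250 g/ha. Injury was assessed 13 days later, where 100 meant the plant was fully damaged.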

[8] = system: barnyardgrass (Echinochloa crus-galli); test: Test G Post-Emergence Protocol; settings: Echinochloa crus-galli, post-emergence, 312 h; for pest or weed control at 15.625 g/ha: 15.625 g ai/ha, evaluated after 13 days (100=total damage to plant; 0=no damage to plant), read-out: Barnyardgrass damage rating; for pest or weed control at 62.5 g/ha: 62.5 g ai/ha, read-out: Barnyardgrass damage rating (100=total damage to plant; 0=no damage to plant); for pest or weed control at 62.5 g/ha / pest or weed control at 250 g/ha: evaluated after 13 days; for pest or weed control at 250 g/ha: 250 g ai/ha, read-out: damage to plant, Barnyardgrass (100=total damage to plant; 0=no damage to plant)
Summary of the method: as §2

[9] = system: velvetleaf (Abutilon theophrasti); test: Test G Post-Emergence Protocol; settings: Abutilon theophrasti, post-emergence, 312 h; for pest or weed control at 15.625 g/ha: 15.625 g ai/ha, evaluated after 13 days (100=total damage to plant; 0=no damage to plant), read-out: Velvetleaf damage rating; for pest or weed control at 62.5 g/ha: 62.5 g ai/ha, read-out: Velvetleaf damage rating (100=total damage to plant; 0=no damage to plant); for pest or weed control at 62.5 g/ha / pest or weed control at 250 g/ha: evaluated after 13 days; for pest or weed control at 250 g/ha: 250 g ai/ha, read-out: damage to plant, Velvetleaf (100=total damage to plant; 0=no damage to plant)
Summary of the method: as §2

[10] = system: giant foxtail (Setaria faberi); test: Test G Post-Emergence Protocol; settings: Setaria faberi, post-emergence, 312 h; for pest or weed control at 15.625 g/ha: 15.625 g ai/ha, evaluated after 13 days (100=total damage to plant; 0=no damage to plant), read-out: Foxtail, Giant damage rating; for pest or weed control at 62.5 g/ha: 62.5 g ai/ha, read-out: Foxtail, Giant damage rating (100=total damage to plant; 0=no damage to plant); for pest or weed control at 62.5 g/ha / pest or weed control at 250 g/ha: evaluated after 13 days; for pest or weed control at 250 g/ha: 250 g ai/ha, read-out: damage to plant, Foxtail, Giant (100=total damage to plant; 0=no damage to plant)
Summary of the method: as §2

[11] = system: ivy-leaved morning glory (Ipomoea hederacea); test: Test G Post-Emergence Protocol; settings: Ipomoea, post-emergence, 312 h; for pest or weed control at 15.625 g/ha: 15.625 g ai/ha, evaluated after 13 days (100=total damage to plant; 0=no damage to plant), read-out: Morningglory, Ivy-leaved damage rating; for pest or weed control at 62.5 g/ha: 62.5 g ai/ha, read-out: Morningglory, Ivy-leaved damage rating (100=total damage to plant; 0=no damage to plant); for pest or weed control at 62.5 g/ha / pest or weed control at 250 g/ha: evaluated after 13 days; for pest or weed control at 250 g/ha: 250 g ai/ha, read-out: damage to plant, Morningglory, Ivy-leaved (100=total damage to plant; 0=no damage to plant)
Summary of the method: as §2

[12] = system: redroot pigweed (Amaranthus retroflexus); test: Test G Post-Emergence Protocol; settings: Amaranthus retroflexus, post-emergence, 312 h; for pest or weed control at 15.625 g/ha: 15.625 g ai/ha, evaluated after 13 days (100=total damage to plant; 0=no damage to plant), read-out: Pigweed, Redroot damage rating; for pest or weed control at 62.5 g/ha: 62.5 g ai/ha, read-out: Pigweed, Redroot damage rating (100=total damage to plant; 0=no damage to plant); for pest or weed control at 62.5 g/ha / pest or weed control at 250 g/ha: evaluated after 13 days; for pest or weed control at 250 g/ha: 250 g ai/ha, read-out: damage to plant, Pigweed, Redroot (100=total damage to plant; 0=no damage to plant)
Summary of the method: as §2

Compound	plant injury at 15.625 g/ha (corn (Zea mays) [1]) [%]	plant injury at 62.5 g/ha (corn (Zea mays) [1]) [%]	plant injury at 250 g/ha (corn (Zea mays) [1]) [%]	pest or weed control at 15.625 g/ha [2] [%]	pest or weed control at 62.5 g/ha [2] [%]	pest or weed control at 250 g/ha [2] [%]	pest or weed control at 15.625 g/ha [3] [%]	pest or weed control at 62.5 g/ha [3] [%]	pest or weed control at 250 g/ha [3] [%]	pest or weed control at 15.625 g/ha [4] [%]	pest or weed control at 62.5 g/ha [4] [%]	pest or weed control at 250 g/ha [4] [%]	pest or weed control at 62.5 g/ha [5] [%]	pest or weed control at 250 g/ha [5] [%]	pest or weed control at 15.625 g/ha [6] [%]	pest or weed control at 62.5 g/ha [6] [%]	pest or weed control at 250 g/ha [6] [%]	plant injury at 15.625 g/ha (corn (Zea mays) [7]) [%]	plant injury at 62.5 g/ha (corn (Zea mays) [7]) [%]	plant injury at 250 g/ha (corn (Zea mays) [7]) [%]	further results
CN1C[C@@H](c2ccc(C(F)(F)F)cc2)[C@H](C(=O)Nc2ccc(C#N)cc2Cl)C1=O (racemic) [Compound 1620]	0	0	0	0	0	0	0	0	0	0	0	0	0	0	0	0	0	0	0	0	pest or weed control at 15.625 g/ha [5]: 0%; pest or weed control at 15.625 g/ha [8]: 0%; pest or weed control at 62.5 g/ha [8]: 0%; pest or weed control at 250 g/ha [8]: 0%; pest or weed control at 15.625 g/ha [9]: 0%; pest or weed control at 62.5 g/ha [9]: 0%; pest or weed control at 250 g/ha [9]: 0%; pest or weed control at 15.625 g/ha [10]: 0%; pest or weed control at 62.5 g/ha [10]: 0%; pest or weed control at 250 g/ha [10]: 0%; pest or weed control at 15.625 g/ha [11]: 0%; pest or weed control at 62.5 g/ha [11]: 0%; pest or weed control at 250 g/ha [11]: 0%; pest or weed control at 15.625 g/ha [12]: 0%; pest or weed control at 62.5 g/ha [12]: 0%; pest or weed control at 250 g/ha [12]: 0%
CN1C[C@@H](c2ccc(C(F)(F)F)cc2)[C@H](C(=O)Nc2ccnc(Cl)c2)C1=O (racemic) [Compound 1571]	0	0	0	0	0	0	0	0	0	0	0	20	0	0	0	0	0	0	0	0	pest or weed control at 15.625 g/ha [5]: 0%; pest or weed control at 15.625 g/ha [8]: 0%; pest or weed control at 62.5 g/ha [8]: 0%; pest or weed control at 250 g/ha [8]: 0%; pest or weed control at 15.625 g/ha [9]: 0%; pest or weed control at 62.5 g/ha [9]: 0%; pest or weed control at 250 g/ha [9]: 0%; pest or weed control at 15.625 g/ha [10]: 0%; pest or weed control at 62.5 g/ha [10]: 0%; pest or weed control at 250 g/ha [10]: 0%; pest or weed control at 15.625 g/ha [11]: 0%; pest or weed control at 62.5 g/ha [11]: 0%; pest or weed control at 250 g/ha [11]: 0%; pest or weed control at 15.625 g/ha [12]: 0%; pest or weed control at 62.5 g/ha [12]: 0%; pest or weed control at 250 g/ha [12]: 0%
CN1C[C@@H](c2ccc(C(F)(F)F)cc2)[C@H](C(=O)Nc2ccc(F)nc2)C1=O (racemic) [Compound 1555]	0	0	20	0	20	70	0	0	0	0	30	70	0	0	40	30	70	0	10	0	pest or weed control at 15.625 g/ha [8]: 0%; pest or weed control at 62.5 g/ha [8]: 0%; pest or weed control at 250 g/ha [8]: 40%; pest or weed control at 15.625 g/ha [9]: 0%; pest or weed control at 62.5 g/ha [9]: 0%; pest or weed control at 250 g/ha [9]: 10%; pest or weed control at 15.625 g/ha [10]: 0%; pest or weed control at 62.5 g/ha [10]: 0%; pest or weed control at 250 g/ha [10]: 50%; pest or weed control at 15.625 g/ha [11]: 0%; pest or weed control at 62.5 g/ha [11]: 10%; pest or weed control at 250 g/ha [11]: 50%; pest or weed control at 15.625 g/ha [12]: 0%; pest or weed control at 62.5 g/ha [12]: 0%; pest or weed control at 250 g/ha [12]: 20%
